Measured values reported in patent US11471417B2 (Small Pharma Ltd, priority 2020, dated 2022).

What was measured:
[1] = In vitro human mitochondrial fraction intrinsic clearance of SPL026 with/without MAO-A and MAO-B inhibitors; assay type: in vitro ADME; conditions: for half-life / microsomal CLint: 0.5 mg/mL human liver mitochondrial fraction
[2] = In vitro human mitochondrial fraction intrinsic clearance of SPL026 and SPL028 analogues; conditions: for microsomal CLint: Intrinsic Clearance
[3] = In vitro intrinsic clearance in human hepatocytes with and without MAO inhibitors (first experiment); conditions: both, human, hepatocytes (pooled, 10 donors), human hepatocytes
[4] = system: Human (mixed gender) hepatocytes; assay: as above; conditions: for Half-life % change / Intrinsic clearance % change: with MAO inhibitors vs no inhibitors
[5] = In vitro intrinsic clearance in human hepatocytes, D2, D6 and D8 DMT (third experiment); conditions: both, hepatocytes (pooled, 10 donors)
[6] = with 100 nM Deprenyl/Selegiline (MAO-B inhibitor), Deprenyl (MAO-B inhibitor) 100 nM
[7] = 0.5 mg/mL human liver mitochondrial fraction, first experiment r7-r12, repeat r13-r20
[8] = human, liver mitochondrial fraction, Half-Life R1, human liver mitochondrial fraction, replicate R1
[9] = human, liver mitochondrial fraction, Half-Life R2, human liver mitochondrial fraction, replicate R2
[10] = human, liver mitochondrial fraction, Half-Life R3, human liver mitochondrial fraction, replicate R3
[11] = human, liver mitochondrial fraction, Half-Life R4, human liver mitochondrial fraction, replicate R4
[12] = human, liver mitochondrial fraction, 0.5 mg/mL human liver mitochondrial fraction, first experiment r7-r12, repeat r13-r20
[13] = Half-life With inhibitors, with MAO-A/B inhibitor combination (Table 5)
[14] = Half-life Without inhibitors, without MAO-A/B inhibitor combination (Table 5)
[15] = Intrinsic clearance With inhibitors, with MAO-A/B inhibitor combination (Table 5)
[16] = Intrinsic clearance Without inhibitors, without MAO-A/B inhibitor combination (Table 5)
[17] = in vitro half-life With inhibitors, 5 μM, with 100 nM clorgyline and 100 nM Deprenyl/Selegiline (Table 4)
[18] = in vitro half-life Without inhibitors, 5 μM, without MAO inhibitors (Table 4)
[19] = with 100 nM clorgyline (MAO-A inhibitor), Clorgyline (MAO-A inhibitor) 100 nM
[20] = human, liver mitochondrial fraction, Half-life, 0.5 mg/mL human liver mitochondrial fraction, first experiment r7-r12, repeat r13-r20
[21] = human hepatocytes, MAO inhibitors vs none

| Structure (SMILES) | half-life ([1]; DMSO Vehicle (no inhibitor)) | microsomal CLint ([1]; DMSO Vehicle (no inhibitor)) | Intrinsic Clearance [2, 7] | half-life [2, 8] | half-life [2, 9] | half-life [2, 10] | half-life [2, 11] | microsomal CLint [2, 12] | half-life at 5 μM [3, 13] | half-life at 5 μM [3, 14] | hepatocyte CLint at 5 μM [3, 15] | hepatocyte CLint at 5 μM [3, 16] | half-life at 5 μM [3, 17] | half-life at 5 μM [3, 18] | Half-life % change ([4]; human hepatocytes) | Intrinsic clearance % change ([4]; human hepatocytes) | half-life at 5 μM [5] | hepatocyte CLint at 5 μM [5] | half-life [2, 7] | half-life [2, 20] | also measured |
| --- | --- | --- | --- | --- | --- | --- | --- | --- | --- | --- | --- | --- | --- | --- | --- | --- | --- | --- | --- | --- | --- |
| NCc1ccccc1 [Benzylamine] | 30.4 min | 45.7 µL/min/mg | 62.1 μL/min/mg protein | 24.3 min | 22.1 min | 21.2 min | 23.5 min | 60 µL/min/mg | 460 min | 76.3 min | < 3 µL/min/1e6 cells | 16.7 µL/min/1e6 cells | 460 min | 76.3 min | >83.41% | <−450% | – | – | – | – | half-life [1, 6]: > 420 min; microsomal CLint [1, 6]: < 3.3 µL/min/mg |
| O=C(O)Cc1ccccc1Nc1c(Cl)cccc1Cl [Diclofenac] | – | – | – | – | – | – | – | – | – | – | – | – | – | – | – | – | 20.7 min | 92.5 µL/min/1e6 cells | – | – | – |
| COc1ccc([C@@H]2Sc3ccccc3N(CCN(C)C)C(=O)[C@@H]2OC(C)=O)cc1 [Diltiazem] | – | – | – | – | – | – | – | – | – | – | – | – | – | – | – | – | 87.3 min | 22 µL/min/1e6 cells | – | – | – |
| CN(C)CCc1c[nH]c2ccccc12 [SPL026, N,N-dimethyltryptamine] | 33.7 min | 42.9 µL/min/mg | 161.0 μL/min/mg protein | 8.8 min | 8.4 min | 7.6 min | 8.3 min | 175 µL/min/mg | 96.1 min | 92.4 min | 13.2 µL/min/1e6 cells | 13.8 µL/min/1e6 cells | 96.1 min | 92.4 min | 3.82% | −4.00% | 98.9 min | 19.4 µL/min/1e6 cells | 8.6 min | 7.9 min | increase in intrinsic clearance with MAO-A inhibitor (Clorgyline) compared to SPL026 without MAO inhibitors ([1]; human liver mitochondrial fraction): 10 fold; half-life [1, 6]: 32.5 min; microsomal CLint [1, 6]: 42.7 µL/min/mg; half-life [1, 19]: > 374 min; microsomal CLint [1, 19]: < 3.9 µL/min/mg; slower intrinsic clearance with inclusion of MAO inhibitors [4, 21]: ~4% |
| [2H]C([2H])(Cc1c[nH]c2ccccc12)N(C)C [SPL028i, α,α-dideutero-N,N-dimethyltryptamine] | – | – | – | 86.1 min | 99.4 min | 82.6 min | 72.1 min | – | 170 min | – | 7.5 µL/min/1e6 cells | 7.15 µL/min/1e6 cells | 170 min | – | −5.33% | 4.67% | 233 min | 8.3 µL/min/1e6 cells | 92.8 min | 77.3 min | quicker intrinsic clearance in the presence of MAO inhibitors [4, 21]: ~5%; change in intrinsic clearance and half-life compared to SPL026 ([4]; initial human hepatocyte studies): ~2 fold |
| [2H]C([2H])([2H])N(CCc1c[nH]c2ccccc12)C([2H])([2H])[2H] [SPL028vii, N,N-bis(trideutero)dimethyltryptamine] | – | – | – | – | – | 9.4 min | 10.9 min | 137 µL/min/mg | – | – | – | – | – | – | – | – | – | – | – | 10.2 min | – |
| [2H]C([2H])([2H])N(C([2H])([2H])[2H])C([2H])([2H])Cc1c[nH]c2ccccc12 [SPL028viii, α,α-dideutero-N,N-bis(trideutero)dimethyltryptamine] | – | – | 12.7 μL/min/mg protein | – | – | 92.9 min | – | 10.9 µL/min/mg | – | – | – | – | – | – | – | – | – | – | 112.2 min | – | increase in metabolic stability ([2]; human mitochondrial fraction assays): 14 fold |
| NCCc1c[nH]c2ccc(O)cc12 [Serotonin] | 11.1 min | 125 µL/min/mg | 157.0 μL/min/mg protein | 9.3 min | 9.1 min | 9.1 min | 8.5 min | 151 µL/min/mg | – | 33 min | 10.1 µL/min/1e6 cells | 38.6 µL/min/1e6 cells | – | 33 min | 73.75% | −282.18% | – | – | – | – | half-life [1, 19]: > 420 min; microsomal CLint [1, 19]: < 3.3 µL/min/mg |
